Experimental data taken from patent US20230407243A1, “GENETIC PLATFORM TO INVESTIGATE THE FUNCTIONS OF BACTERIAL DRUG EFFLUX PUMPS” (priority 2022, published 2023).
Like-named read-outs stand apart in the source and are kept apart here.

Tests used:
Format in all cases: cell-based, Escherichia coli
E. coli EKO-35 = test: microbe, parasite or virus in culture; settings: for MIC: Escherichia coli, EKO35, technical duplicate
Method in brief: (§1)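 Broth MIC in cation-adjusted Mueller-Hinton (MHB II) following twofold compound titration in duplicate. Bacteria were prepared at OD600 ~1.0 in PBS and diluted 1/2000. Endpoint OD600 after 18 h at 37 °C was corrected using the pre-incubation reading.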

E. coli ΔtolC = test: microbe, parasite or virus in culture
Method in brief: as §1

[1] = system: wild-type E. coli K-12 str. BW25113; test: microbe, parasite or virus in culture; settings: Escherichia coli, BW25113, technical duplicate
Method in brief: as §1

EKO-35 araC::acrBD408A = test: MIC susceptibility profiling, efflux platform
Method in brief: as §1

EKO-35 araC::acrB = test: MIC susceptibility profiling, efflux platform
Method in brief: as §1

EKO-35 araC::acrD = test: MIC susceptibility profiling, efflux platform
Method in brief: as §1

EKO-35 araC::acrEF = test: MIC susceptibility profiling, efflux platform
Method in brief: as §1

EKO-35 araC::emrAB = test: MIC susceptibility profiling, efflux platform
Method in brief: as §1

EKO-35 araC::emrKY = test: MIC susceptibility profiling, efflux platform
Method in brief: as §1

EKO-35 araC::macAB = test: MIC susceptibility profiling, efflux platform
Method in brief: as §1

EKO-35 araC::mdtBC = test: MIC susceptibility profiling, efflux platform
Method in brief: as §1

EKO-35 araC::mdtEF = test: MIC susceptibility profiling, efflux platform
Method in brief: as §1

[2] = system: EKO-35 araC::mexCD (MexCD from P. aeruginosa); test: MIC susceptibility profiling, efflux platform
Method in brief: as §1

wild-type (WT) K-12-Pore = test: microbe, parasite or virus in culture; settings: Escherichia coli, technical duplicate
Method in brief: (§2)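 MIC values come from background-corrected OD600 readings (pre-incubation OD subtracted) after 18 h at 37 °C and 900 rpm in MHB II. Compounds were tested in duplicate as 2-fold dilutions. The inoculum came from 18 h LB cultures adjusted to OD600 ~1.0 and diluted 1/2000, and the pore-bearing strains were vancomycin-checked beforehand.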

ΔtolC-Pore = test: microbe, parasite or virus in culture
Method in brief: as §2

EKO-35-Pore = test: MIC susceptibility profiling, porinated strain; settings: for MIC: Escherichia coli, technical duplicate
Method in brief: as §2

EKO-35 araC::acrB Pore = test: MIC susceptibility profiling, porinated efflux platform; settings: EKO-35 araC::acr-B Pore compared to EKO-35-Pore
Method in brief: as §2

EKO-35 araC::mdtBC Pore = test: as above
Method in brief: as §2

EKO-35 araC::mdtEF Pore = test: as above
Method in brief: as §2

Q: What does the source list for `CN[C@H](CC(C)C)C(=O)N[C@H]1C(=O)N[C@@H](CC(N)=O)C(=O)N[C@H]2C(=O)N[C@H]3C(=O)N[C@H](C(=O)N[C@H](C(=O)O)c4cc(O)cc(O)c4-c4cc3ccc4O)[C@H](O)c3ccc(c(Cl)c3)Oc3cc2cc(c3O[C@@H]2O[C@H](CO)[C@@H](O)[C@H](O)[C@H]2O[C@H]2C[C@](C)(N)[C@H](O)[C@H](C)O2)Oc2ccc(cc2Cl)[C@H]1O` [vancomycin]?
A: Fold change of MICs (E. coli EKO-35; EKO-35 compared to EKO-35 (reference)): 1 fold; MIC (E. coli EKO-35; Table 10, without pore, read-out: Minimum inhibitory concentration (MIC), EKO-35): 200 µg/mL; MIC (E. coli EKO-35; Table 13A, non-porinated, read-out: Minimum Inhibitory Concentration, EKO-35): 200 µg/mL; MIC (E. coli ΔtolC; Escherichia coli, 18 h, read-out: Minimum Inhibitory Concentration, ΔtolC): 200 µg/mL; Minimum inhibitory concentration (MIC), ΔtolC (E. coli ΔtolC; Table 10, without pore, technical duplicate): 200 µg/mL; MIC ([1]; Table 10, without pore, read-out: Minimum inhibitory concentration (MIC), K-12): 200 µg/mL; MIC ([1]; Table 13A, non-porinated, read-out: Minimum Inhibitory Concentration, K-12): 200 µg/mL; Fold change of MICs (EKO-35 araC::acrBD408A; EKO-35 araC::acrBD408A compared to EKO-35): 1 fold; MIC (EKO-35 araC::acrBD408A; Escherichia coli, Table 13B, non-porinated, technical duplicate, read-out: Minimum Inhibitory Concentration, EKO-35 araC::acrBD408A): 200 µg/mL; Fold change of MICs (EKO-35 araC::acrB; EKO-35 araC::acrB compared to EKO-35): 1 fold; MIC (EKO-35 araC::acrB; Escherichia coli, Table 13A, non-porinated, technical duplicate, read-out: Minimum Inhibitory Concentration, EKO-35 araC::acrB): 200 µg/mL; Fold change of MICs (EKO-35 araC::acrD; EKO-35 araC::acrD compared to EKO-35): 1 fold; MIC (EKO-35 araC::acrD; Escherichia coli, Table 13A, non-porinated, technical duplicate, read-out: Minimum Inhibitory Concentration, EKO-35 araC::acrD): 200 µg/mL; Fold change of MICs (EKO-35 araC::acrEF; EKO-35 araC::acrEF compared to EKO-35): 1 fold; MIC (EKO-35 araC::acrEF; Escherichia coli, Table 13A, non-porinated, technical duplicate, read-out: Minimum Inhibitory Concentration, EKO-35 araC::acrEF): 200 µg/mL; Fold change of MICs (EKO-35 araC::emrAB; EKO-35 araC::emrAB compared to EKO-35): 1 fold; MIC (EKO-35 araC::emrAB; Escherichia coli, Table 13B, non-porinated, technical duplicate, read-out: Minimum Inhibitory Concentration, EKO-35 araC::emrAB): 200 µg/mL; Fold change of MICs (EKO-35 araC::emrKY; EKO-35 araC::emrKY compared to EKO-35): 1 fold; MIC (EKO-35 araC::emrKY; Escherichia coli, Table 13B, non-porinated, technical duplicate, read-out: Minimum Inhibitory Concentration, EKO-35 araC::emrKY): 200 µg/mL; Fold change of MICs (EKO-35 araC::macAB; EKO-35 araC::macAB compared to EKO-35): 1 fold; MIC (EKO-35 araC::macAB; Escherichia coli, Table 13B, non-porinated, technical duplicate, read-out: Minimum Inhibitory Concentration, EKO-35 araC::macAB): 200 µg/mL; Fold change of MICs (EKO-35 araC::mdtBC; EKO-35 araC::mdtBC compared to EKO-35): 1 fold; MIC (EKO-35 araC::mdtBC; Escherichia coli, Table 13B, non-porinated, technical duplicate, read-out: Minimum Inhibitory Concentration, EKO-35 araC::mdtBC): 200 µg/mL; Fold change of MICs (EKO-35 araC::mdtEF; EKO-35 araC::mdtEF compared to EKO-35): 1 fold; MIC (EKO-35 araC::mdtEF; Escherichia coli, Table 13A, non-porinated, technical duplicate, read-out: Minimum Inhibitory Concentration, EKO-35 araC::mdtEF): 200 µg/mL; Fold change of MICs ([2]; EKO-35 araC::mexCD compared to EKO-35): 1 fold; MIC ([2]; Table 13B, non-porinated, technical duplicate, read-out: Minimum Inhibitory Concentration, EKO-35 araC::mexCD): 200 µg/mL; MIC (wild-type (WT) K-12-Pore; Table 10, with pore, read-out: Minimum inhibitory concentration (MIC), Pore K-12): 3.12 µg/mL; MIC (wild-type (WT) K-12-Pore; Table 14A, porinated, read-out: Minimum inhibitory concentration, K-12 (WT)-Pore): 3.12 µg/mL; MIC (ΔtolC-Pore; Escherichia coli, 18 h, read-out: Minimum inhibitory concentration, ΔtolC-Pore): 6.25 µg/mL; Minimum inhibitory concentration (MIC), Pore ΔtolC (ΔtolC-Pore; Table 10, with pore, technical duplicate): 6.25 µg/mL; Fold changes of MICs (EKO-35-Pore; EKO-35-Pore compared to EKO-35-Pore (reference)): 1 fold; MIC (EKO-35-Pore; Table 10, with pore, read-out: Minimum inhibitory concentration (MIC), Pore EKO-35): 6.25 µg/mL; MIC (EKO-35-Pore; Table 14A, porinated, read-out: Minimum inhibitory concentration, EKO-35-Pore): 6.25 µg/mL; Fold changes of MICs (EKO-35 araC::acrB Pore): 1 fold; Fold changes of MICs (EKO-35 araC::mdtBC Pore; EKO-35 araC::mdtBC Pore compared to EKO-35-Pore): 0 fold; MIC (EKO-35 araC::mdtBC Pore; Escherichia coli, EKO-35 araC::mdtBC Pore, technical duplicate, read-out: Minimum inhibitory concentration): 1.56 µg/mL; Fold changes of MICs (EKO-35 araC::mdtEF Pore; EKO-35 araC::mdtEF Pore compared to EKO-35-Pore): 1 fold; MIC (EKO-35 araC::mdtEF Pore; Escherichia coli, Table 14A, porinated, technical duplicate, read-out: Minimum inhibitory concentration, EKO-35 araC::mdtEF Pore): 6.25 µg/mL
